Results from ChEMBL document CHEMBL3421554, “Discovery of HCV NS5B thumb site I inhibitors: core-refining from benzimidazole to indole scaffold” (Eur J Med Chem, 2015).
Values after ≈ are worked out from the molar mass of the structure shown. One block for each compound: values may come before it.

How the values were obtained:
[1] = test system: Hepatitis C virus; assay: Antiviral activity against HCV assessed as inhibition of viral replication by cell-based assay; format: functional, organism-based, Hepacivirus hominis
[2] = Inhibition of N-terminal hexa-histidine tagged HCV NS5B expressed in baculovirus infected insect cells using 12 nucleotide RNA oligo-uridylate primer and complementary poly-adenylate template assessed as incorporation of UMP-[5,6-3H] into the chain elongated from oligo-U primer by TopCount analysis; parameters: species or system Hepacivirus hominis
[3] = Inhibition of N-terminal hexa-histidine tagged full-length HCV genotype 1b NS5B expressed in baculovirus-infected cells using 5'-biotinylated oligo(rU12), poly(rA) as template-primer assessed as incorporation of [3H]-UTP after 90 mins by Scintillation Proximity Assay; parameters: species or system Hepatitis C virus subtype 1b
[4] = target: Genome polyprotein (Hepatitis C virus genotype 1b (isolate BK) (HCV), UniProt P26663); assay: Inhibition of HCV genotype 1b BK NS5B expressed in Escherichia coli BL21 (DE3) after 1 hr
[5] = test system: Hepatitis C virus; assay: Antiviral activity against HCV infected in human HuH7 cells assessed as inhibition of viral replication after 72 hrs by RT-PCR analysis; format: functional, organism-based, Hepacivirus hominis; settings: Huh-7, 72 h
[6] = Inhibition of N-terminally tagged full-length HCV NS5B using biotinylated oligo(rU12), poly(rA) as template-primer assessed as incorporation of [3H]-UTP after 90 mins by Scintillation Proximity Assay; parameters: species or system Hepacivirus hominis
[7] = test system: Hepatitis C virus; assay: Antiviral activity against HCV genotype 1b Con1 infected in human HuH7 cells assessed as inhibition of viral replication; format: functional, cell-based, Hepacivirus hominis; settings: genotype 1b Con1, Huh-7
[8] = Octanol-buffer distribution co-efficient, log D of the compound at pH 7.4 by shaking-flask method; format: physicochemical
[9] = Solubility of the compound in phosphate buffer at pH 7.2; format: physicochemical

Genome polyprotein, sequence (P26663 2420-3010 limits assumed): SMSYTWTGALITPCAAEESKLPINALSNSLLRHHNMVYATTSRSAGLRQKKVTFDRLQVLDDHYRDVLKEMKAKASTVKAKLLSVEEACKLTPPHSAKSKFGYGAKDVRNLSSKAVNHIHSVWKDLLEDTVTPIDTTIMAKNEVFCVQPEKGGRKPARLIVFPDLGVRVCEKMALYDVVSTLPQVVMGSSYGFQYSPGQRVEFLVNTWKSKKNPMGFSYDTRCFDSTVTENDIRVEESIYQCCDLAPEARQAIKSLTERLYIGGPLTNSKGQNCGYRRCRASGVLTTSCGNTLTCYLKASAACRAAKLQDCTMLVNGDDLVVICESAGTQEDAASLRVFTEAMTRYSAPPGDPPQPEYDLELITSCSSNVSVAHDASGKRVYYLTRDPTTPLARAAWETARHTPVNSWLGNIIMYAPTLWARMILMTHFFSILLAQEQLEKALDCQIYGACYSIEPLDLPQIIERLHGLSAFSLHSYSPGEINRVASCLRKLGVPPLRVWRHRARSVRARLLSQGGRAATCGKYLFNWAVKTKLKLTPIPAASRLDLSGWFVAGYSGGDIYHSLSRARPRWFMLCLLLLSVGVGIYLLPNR

SMILES: O=C(O)c1ccc2c(c1)nc(-c1ccoc1)n2C1CCCCC1
- IC50 [2]: 1.6 µM

SMILES: COc1ccc(CCNC(=O)c2ccc3c(c2)nc(-c2ccccn2)n3C2CCCCC2)cc1OC
- IC50 [2]: 12 µM

SMILES: O=C(O)c1ccc2c(C3CCCCC3)c(-c3ccccc3)n(CC(=O)N3CCOCC3)c2c1
- EC50 [1]: 800 nM

SMILES: CN(C)C(=O)Cn1c(-c2ccccc2)c(C2CCCCC2)c2sc(C(=O)O)cc21
- IC50 [4]: 58 nM

SMILES: CC(C)N1CCC(N(C)C(=O)Cn2c(-c3ccccc3)c(C3CCCCC3)c3sc(C(=O)O)cc32)C1 (centres undefined)
- IC50 [4]: 10 nM
- EC50 [7]: 130 nM

SMILES: CC(C)N1CC[C@@H](N2CCn3c(c(C4CCCCC4)c4sc(C(=O)O)cc43)-c3ccccc3C2)C1
- IC50 [4]: 19 nM
- EC50 [7]: 150 nM

SMILES: CC(C)CNCc1c(C(=O)O)sc2c(C3CCCCC3)c(-c3ccccc3)n(CC(=O)N(C)C3CCN(C(C)C)C3)c12 (centres undefined)
- IC50 [4]: 11 nM
- EC50 [7]: 510 nM

The next lines start with the values.

- EC50 [1]: 550 nM
SMILES: O=C(O)/C=C/c1ccc(NC(=O)C2(NC(=O)c3ccc4c(c3)nc(-c3ccoc3)n4C3CCCCC3)CCCC2)cc1

- IC50 [3]: 40 nM
SMILES: CC(C)(NC(=O)c1ccc2c(c1)nc(-c1ccoc1)n2C1CCCCC1)C(=O)Nc1ccc(/C=C/C(=O)O)cc1

- EC50 [5]: 1.7 µM
- IC50 [6]: 300 nM
SMILES: O=C(N[C@H](Cc1c[nH]c2ccc(O)cc12)c1cscn1)c1ccc2c(c1)nc(-c1ccoc1)n2C1CCCCC1

- IC50 [6]: 27 nM
SMILES: O=C(O)COc1ccc2[nH]cc(C[C@H](NC(=O)c3ccc4c(c3)nc(-c3ccoc3)n4C3CCCCC3)C(=O)O)c2c1

- logD [8]: 2.2
- EC50 [5]: 6.9 µM
- IC50 [6]: 130 nM
- solubility [9]: 171 µM (≈ 90 µg/mL)
SMILES: C[C@@H](NC(=O)c1ccc2c(c1)nc(-c1ccoc1)n2C1CCCCC1)C(=O)Nc1ccc(/C=C/C(=O)O)cc1
